Reference: US10239825B2, “Ketamine derivatives” (Auckland Uniservices Limited, priority 2013, dated 2019)

Columns and labels:
[1] = pharmacological, analgesic and anaesthetic properties; cited from earlier work
[2] = test system: adult female Sprague-Dawley rats; assay: rat infusion study: loss/recovery of righting reflex and walk (anaesthetic effect); assay type: in vivo; details: exploratory, mostly single-animal evaluations
[3] = test system: adult female Sprague-Dawley rats; assay: as above; assay type: in vivo; details: for minimal effective dose: Rattus norvegicus, iv, total drug administered to achieve loss of righting reflex, i.v. infusion, read-out: LRR Dose; for potency (in words) / recovery (in words): rat infusion study, discussion; for LRR Dose, head-to-head ratio to ketamine / LRR Time, head-to-head ratio to ketamine / Walk Time, head-to-head ratio to ketamine / RRR Time, head-to-head ratio to ketamine: ratio compound/ketamine; for Walk Time: time from end of infusion to independent locomotion; for RRR Time: time from end of infusion to recovery of righting reflex; for LRR Time: time from onset of i.v. infusion to loss of righting reflex, 20 mg/kg/min initially
Experimental: (§1) All animal experiments were conducted at the Ruakura Research Centre, Hamilton, New Zealand, using experimental protocols reviewed and approved by the Ruakura Animal Ethics Committee (ethics ref 12604).
(§2) Following acquisition of baseline physiologic parameters (heart rate, respiratory rate, PWR, and righting reflex (RR)) adult female Sprague-Dawley rats of approximately 350-450 g were put under non-traumatic restraint and the marginal vein of the tail was cannulated. Ketamine or a compound of the invention at 10 mg/ml was administered via a minibore extension tube adequately secured to the tail. Infusions were commenced at a rate (weight-adjusted) to deliver 20 mg/kg/min initially (until the pedal withdrawal reflex score PWR=1), then were reduced to a rate of 6.7 mg/kg/min. Infusion rate was then titrated in an up-and-down fashion to maintain dorsal recumbency and a PWR=1 to 10 minutes before cessation. Three rats were used in each study, with each group of rats also acting as their own ketamine control. The order of study drug administration was determined by prior odds/evens randomisation with a recovery interval of at least one hour afforded between experiments. PWR and RR were recorded at 1 minute intervals throughout. The times from cessation of infusion to return of righting reflex (RRR), and from cessation of infusion to the animals displaying independent locomotion (walk) were recorded.
Loss of Righting Reflex (LRR):
This is primarily used to assess anaesthetic hypnotic effect. Righting reflex is judged absent when the rat fails to right from a position of dorsal recumbency to a position of sternal recumbency on three attempts performed in rapid succession. Dose to LRR is termed effective potency.

[4] = test system: adult female Sprague-Dawley rats; assay: rat infusion study: pedal withdrawal reflex PWR = 1 (analgesic effect); assay type: in vivo; details: for minimal effective dose: Rattus norvegicus, iv, total drug administered to achieve PWR = 1, i.v. infusion; for PWR = 1 Dose, head-to-head ratio to ketamine / PWR = 1 Time, head-to-head ratio to ketamine: ratio compound/ketamine; for PWR = 1 Time: time from onset of i.v. infusion to PWR = 1
Experimental: as §1, §2
Pedal Withdrawal Reflex (PWR) Scoring:
Nociceptive testing in animals was conducted via 1 second application of constant pressure (firm digital pressure) over the forepaw of the animal. Pedal withdrawal reflex testing is primarily used to assess analgesic effect, and responses are graded accordingly: 0, absent; 1, flicker; 2, moderate withdrawal; 3, fast withdrawal; 4, Fast withdrawal with cry/preceding apnoea (modified from Buitrago, S. et al. J. Amer. Assoc. Lab. Animal. Sci. 2008, 47, 11-17).

[5] = in vivo; cited from earlier work
[6] = average over the various experiments
[7] = range over the various experiments

Row | SMILES | sedative effect (in words) [2] | minimal effective dose [3] [mg/kg] | potency (in words) [3] | LRR Dose, head-to-head ratio to ketamine [3] | LRR Time, head-to-head ratio to ketamine [3] | Walk Time [3] [s] | RRR Time [3] [s] | LRR Time [3] [s] | minimal effective dose [4] [mg/kg] | PWR = 1 Dose, head-to-head ratio to ketamine [4] | PWR = 1 Time, head-to-head ratio to ketamine [4] | PWR = 1 Time [4] [s] | Walk Time, head-to-head ratio to ketamine [3] | RRR Time, head-to-head ratio to ketamine [3] | melting point [°C] | also measured
1 | CN[C@]1(c2ccccc2Cl)CCCCC1=O [(S)-Ketamine] | – | – | – | – | – | – | – | – | – | – | – | – | – | – | – | potency relative to the racemate [1]: about twice as potent
2 | CCOC(=O)CCN(C)C1(c2ccccc2Cl)CCCCC1=O (stereo not drawn) [compound 19, Ethyl 3-((1-(2-chlorophenyl)-2-oxocyclohexyl)(methyl)amino)propanoate] | very weak sedative effect | 95 | about as potent as the n-Pr norketamine esters | 4.50 | 4.67 | 0 | 0 | 280 | 99 | 3.96 | 4.20 | 290 | – | – | – | recovery (in words) [3]: very rapid recovery
3 | COC(=O)CCCCN(C)C1(c2ccccc2Cl)CCCCC1=O (stereo not drawn) [compound 21, Methyl 5-((1-(2-chlorophenyl)-2-oxocyclohexyl)(methyl)amino)pentanoate] | weak sedative activity | 145 | less potent | 7.25 | 7.37 | 201 | 0 | 420 | 148 | 5.29 | 5.30 | 435 | 0.09 | – | – | –
4 | CCOC(=O)CCCNC1(c2ccccc2Cl)CCCCC1=O.Cl (racemic) [rac-C3Et, Ethyl 4-((1-(2-chlorophenyl)-2-oxocyclohexyl)amino)butanoate Hydrochloride] | – | 24 ± 2 | – | 1.41 | 1.19 | 170 ± 17 | 95 ± 12 | 70 ± 6 | 44 ± 5 | 1.83 | 1.80 | 137 ± 14 | 0.08 | 0.062 | 186 to 189 | –
5 | CNC1(c2ccccc2Cl)CCCCC1=O (racemic) [rac-ketamine, (2-o-Chlorophenyl)-2-methylamino-cyclohexanone, reference compound] | – | 20 ± 1 | – | – | – | – | – | – | 26 ± 1 | – | – | – | – | – | – | Time to RRR, Average [3, 6]: 1212 ± 318 s; Time to achieve LRR, Average [3, 6]: 61 ± 8 s; Time to walking, Average [3, 6]: 1709 ± 400 s; Total dose to LRR, Average ([3]; average over the various experiments (Table 4 row r6)): 21 ± 7 mg/kg; Time to RRR, Range [3, 7]: 863 to 2040 s; Time to achieve LRR, Range [3, 7]: 51 to 75 s; Time to walking, Range [3, 7]: 1100 to 2340 s; Total dose to LRR, Range ([3]; range over the various experiments (Table 4 row r6)): 17 to 27 mg/kg; Time to PWR = 1, Average [4, 6]: 76 ± 9 s; Total dose to PWR = 1 ([4]; average over the various experiments (Table 4 row r8, second line so named)): 26 ± 4 mg/kg; Time to PWR = 1, Range [4, 7]: 60 to 95 s; Total dose to PWR = 1 ([4]; range over the various experiments (Table 4 row r8, second line so named)): 21 to 34 mg/kg; half-life [5]: 2 to 3 h
6 | CC(C)OC(=O)CCN[C@]1(c2ccccc2Cl)CCCCC1=O.Cl [(S)-C2iPr, (S)-Isopropyl 3-((1-(2-chlorophenyl)-2-oxocyclohexyl)amino)propanoate hydrochloride] | – | 74 ± 9 | only half as potent | 2.46 | 3.41 | 224 ± 90 | 15 ± 15 | 222 ± 18 | 84 ± 4 | 2.47 | 3.14 | 247 ± 13 | 0.19 | 0.02 | 208 to 211 | recovery (in words) [3]: faster recoveries than the corresponding racemates
7 | CC(C)OC(=O)CCCNC1(c2ccccc2Cl)CCCCC1=O.Cl (racemic) [rac-C3iPr, Isopropyl 4-((1-(2-chlorophenyl)-2-oxocyclohexyl)amino)butanoate hydrochloride] | – | 42 ± 9 | – | 1.83 | 1.81 | 110 ± 45 | 37 ± 22 | 125 ± 21 | 66 ± 17 | 2.36 | 2.29 | 192 ± 47 | 0.08 | 0.042 | 167 to 169 | –
8 | CCOC(=O)CCCN(C)C1(c2ccccc2Cl)CCCCC1=O.Cl (stereo not drawn) [compound 20, Ethyl 4-((1-(2-chlorophenyl)-2-oxocyclohexyl)(methyl)amino)butanoate Hydrochloride] | weak sedative activity | 196 | less potent | 7.84 | 8.00 | 0 | 0 | 600 | 196 | 6.76 | 6.98 | 600 | – | – | – | –
9 | CCOC(=O)CCNC1(c2ccccc2Cl)CCCCC1=O.Cl (racemic) [rac-C2Et, Ethyl 3-((1-(2-chlorophenyl)-2-oxocyclohexyl)amino)propanoate Hydrochloride] | – | 48 ± 23 | – | 1.78 | 1.75 | 253 ± 68 | 177 ± 51 | 135 ± 61 | 55 ± 25 | 1.45 | 1.62 | 154 ± 68 | 0.10 | 0.11 | 199 to 202 | –
